Data as given in PMC4125160, “Neurotoxicity and Mode of Action of N, N-Diethyl-Meta-Toluamide (DEET)” (PLoS ONE, 2014).
Like-named read-outs stand apart in the source and are kept apart here.

Columns and labels:
[1] = target: Musca domestica AChE (MdAChE) (Musca domestica, UniProt Q7YWJ9); experiment: AChE inhibition, Ellman assay; format: biochemical
Excerpt: (§1) In vitro biochemical assays utilized five acetylcholinesterase (AChE) enzymes. Recombinant human AChE (hAChE) was purchased from a commercial source (lyophilized powder, Sigma C1682, St. Louis, MO, USA). Homogenates to prepare Anopheles gambiae AChE (AgAChE) were obtained from the wild type G3 strain and the resistant AKRON strain (BEI Resources; http://www.beiresources.org/). AKRON mosquitoes (from Benin and donated by M. Akogbeto) have both knockdown resistance (kdr) to pyrethroids (L1014F sodium channel mutation) and the G119S AChE mutation (ace-1R), which confers resistance to carbamates, [15]. Both strains were cultured in the Emerging Pathogens Institute, University of Florida, Gainesville, FL, USA from eggs provided by the Center for Disease Control, Atlanta, GA, USA. Homogenates were also used to prepare Aedes aegypti AChE (AeAChE) from mosquitoes provided by the CMAVE, USDA-ARS, Gainesville, FL, USA; Musca domestica AChE (MdAChE) from flies cultured in the Department of Entomology and Nematology, Medical Entomology Laboratory, University of Florida, Gainesville, FL, USA); and Drosophila melanogaster AChE (DmAChE) from flies (Oregon-R strain) cultured in the Emerging Pathogens Institute, University of Florida, Gainesville, FL, USA. Homogenate enzymes were prepared from groups of ten non-blood fed adult female mosquitoes, five whole bodied Drosophila, or three Musca heads homogenized in 1 mL of ice-cold sodium phosphate buffer (0.1 M sodium phosphate, pH 7.8) with an electric motor driven glass tissue homogenizer. The homogenate was centrifuged at 5000×g using a Sorvall Fresco refrigerated centrifuge at 4 °C for 5 minutes. The supernatant was used as the enzyme source, and all enzyme preparations contained 0.3% (v/v) triton X-100 and 1 mg/ml BSA. Prior to use, the recombinant human enzyme was diluted 500-fold into sodium phosphate buffer containing triton X-100 and 1 mg/ml BSA.
(§2) Inhibition of AChE was determined using the Ellman assay and was based on the method outlined in Carlier et al.. Briefly, enzyme solution (10 µL) was added to each well of a 96-well micro assay plate, along with 20 µL of inhibitor in DMSO/saline suspension, and 150 µL of sodium phosphate buffer. Final concentration of DMSO was 0.1% in all incubations. The plate was incubated at 25 °C for ten minutes. Ellman assay reagents, acetylthiocholine iodide (0.4 mM, final concentration) and 5,5′-dithiobis-(2-nitro)benzoic acid (0.3 mM, final concentration), were prepared fresh and 20 µL was added to the enzyme to initiate the reaction. Changes in absorbance were recorded by a DYNEX Triad spectrophotometer (DYNEX Technologies, Chantilly, VA, USA) at 405 nm. Enzyme concentrations used were within the linear range, therefore eliminating the need for protein quantification.

[2] = target: T1, Recombinant human AChE (hAChE) (Homo sapiens, UniProt P22303); experiment: AChE inhibition, Ellman assay; format: biochemical; conditions: mean, n = 3; read-out: IC50 (95% CI)
T1 construct: purchased Sigma C1682
Excerpt: as §1, §2

[3] = target: T2, AKRON AgAChE (G119S AChE mutation) (Anopheles gambiae, UniProt Q869C3, G280S); experiment: AChE inhibition, Ellman assay; format: biochemical
T2 construct: Homogenate enzymes were prepared from groups of ten non-blood fed adult female mosquitoes; from tissue; host or cells: whole adult female mosquitoes, AKRON strain, supernatant of homogenate
Excerpt: as §1, §2

[4] = test system: Aedes aegypti; experiment: Topical toxicity bioassay on adult females; format: in vivo; conditions: for signs of intoxication: DEET lethal doses, propoxur 1 ng/insect, five minutes after treatment; for LD50 (95% CI): topical application, ng of compound/mg body weight, 24 hr
Method: Topical toxicity bioassays on adult female mosquitoes were performed based on the method of Pridgeon et al.. Briefly, insects were chilled on ice for 3 min, during which the appropriate volume (200 nL for mosquitoes, 1 µL for Musca) of chemical (dissolved in 95% ethanol) was applied onto the abdomen using a handheld Hamilton microapplicator. For each inhibitor, five doses were applied to groups of ten insects each and repeated three times. An ethanol-only treatment was included in each experiment as a negative control. Insects were transferred into a holding chamber post-treatment and supplied with free access to sugar water for the duration of the experiment. […] Three LD50 values were obtained and the mean LD50 value was calculated and used for statistical analysis.
For all toxicity assays, control mortality was corrected for using Abbots formula [19]; where corrected percent mortality = (% alive in control–% alive in treated) /% alive in control.

[5] = test system: neuromuscular junction of third instar Musca domestica larvae; experiment: Neuromuscular junction recordings of evoked EPSP in housefly larvae; conditions: for effect on evoked EPSP in words: toluene at 5 mM
Method: Neuromuscular recordings of the evoked excitatory postsynaptic potential (EPSP) were performed on third instar housefly larvae, essentially as described previously. In short, the maggot was immobilized with pins, and the nervous and musculature systems were exposed. The preparation was then bathed in saline containing: 140 mM NaCl, 0.75 mM CaCl2, 5 mM KCl, 4 mM MgCl2, 5 mM NaHCO3, and 5 mM HEPES (pH = 7.25). The nerves were severed from the base of the CNS, which was removed, and a lateral nerve trunk innervating the longitudinal muscles was drawn into a suction electrode filled with saline. Stimuli were applied at 1 volt and of 0.2 sec duration to elicit a contraction from the longitudinal muscles. The stimulated muscle was then impaled with a recording glass capillary microelectrode filled with 1 M KCl to record effects on the evoked EPSP and membrane potential. Signals from all recordings were amplified and digitized with the use of the MacLab. Chemicals were applied to the preparation directly by hand pipetting 150 µL of solution into the bath volume of 150 µL.

[6] = target: T3, Anopheles gambiae AChE (AgAChE), wild type G3 strain (Anopheles gambiae, UniProt Q869C3); experiment: AChE inhibition, Ellman assay; format: biochemical
T3 construct: Homogenate enzymes were prepared from groups of ten non-blood fed adult female mosquitoes; from tissue; host or cells: whole adult female mosquitoes, G3 strain, supernatant of homogenate
Excerpt: as §1
as §2, with “reaction.” for “reaction. Changes in absorbance were recorded by a DYNEX Triad spectrophotometer (DYNEX Technologies, Chantilly, VA, USA) at 405 nm. Enzyme concentrations used were within the linear range, therefore eliminating the need for protein quantification.”

[7] = target: T4, Aedes aegypti AChE (AeAChE) (Aedes aegypti, UniProt Q6A2E2); experiment: AChE inhibition, Ellman assay; format: biochemical
T4 construct: Homogenate enzymes were prepared from groups of ten non-blood fed adult female mosquitoes; from tissue; host or cells: whole adult female mosquitoes, supernatant of homogenate
Excerpt: as §1
as §2, with “reaction.” for “reaction. Changes in absorbance were recorded by a DYNEX Triad spectrophotometer (DYNEX Technologies, Chantilly, VA, USA) at 405 nm. Enzyme concentrations used were within the linear range, therefore eliminating the need for protein quantification.”

[8] = target: T5, Drosophila melanogaster AChE (DmAChE) (Drosophila melanogaster, UniProt P07140); experiment: AChE inhibition, Ellman assay; format: biochemical
T5 construct: five whole bodied Drosophila, or three Musca heads homogenized; from tissue; host or cells: whole Drosophila (Oregon-R), supernatant of homogenate
Excerpt: as §1
as §2, with “reaction.” for “reaction. Changes in absorbance were recorded by a DYNEX Triad spectrophotometer (DYNEX Technologies, Chantilly, VA, USA) at 405 nm. Enzyme concentrations used were within the linear range, therefore eliminating the need for protein quantification.”

[9] = mean, n = 3, read-out: IC50 (95% CI)

SMILES	fold more potent than the IC50 value of DEET to MdAChE ([1]; mean IC50)	IC50 ([1]; read-out: IC50 (95% CI); mean, n = 3) [µM]	IC50 [2] [µM]	IC50 [3] [µM]	signs of intoxication [4]	LD50 (95% CI) [4]	effect on evoked EPSP in words [5]	IC50 [6] [µM]	IC50 [7] [µM]	IC50 [8] [µM]	IC50 ([1]; mean, n = 3; read-out: IC50 (95% CI)) [µM]	time to complete block ([5]; 10 mM added to the bath)	change in muscle membrane resting potential ([5]; any concentration)	concentration at which half of the preparations were blocked ([5]; evoked EPSP, all or none response)	sensitivity of enzyme in words ([6]; concentrations up to 10 mM)	IC50 [6, 9] [µM]	sensitivity of enzyme in words ([7]; concentrations up to 10 mM)	IC50 [7, 9] [µM]	IC50 [8, 9] [µM]
CNC(=O)Oc1ccccc1OC(C)C [propoxur]	40,000 fold	0.13	1.44	> 100	intense hyperexcitation in the absence of any physical stimulation	1.4 (95% CI: 0.9–2.1) ng/mg	no effect	0.447	0.37	0.084									
CCN(CC)C(=O)c1cccc(C)c1 [DEET, N, N-diethyl-meta-toluamide]			12000	> 10000	both hyperexcitatory and lethargic tendencies	1102 (836–1367)a ng/mg	complete and rapid block				6000	approximately 120 seconds	Little or no change	ca. 7 mM	completely insensitive	> 10000	completely insensitive	> 10000	10000
